Reference: patent US6369226B1, “Substituted benzamide inhibitors of rhinovirus 3C protease” (Agouron Pharmaceuticals, Inc., priority 1999, dated 2002)
Where two headings read alike, the source gives them in different places.

How the values were obtained:
HRV-14 3CP = molecular target: T1, HRV-14 3CP (Human rhinovirus 14, UniProt P03303); test: 3CP enzyme inhibition assay; assay type: biochemical; conditions: for kinact/KI: read-out: Kobs/[I]
T1 construct: The 2A and 3C protease (3CP) process this polyprotein into its functional viral proteins in HRV
Source text: 3CP Inhibition Assays and Antiviral Assays The details of the 3CP enzyme assays used and the antiviral assays used are outlined in Dragovich, P. S., Webber, S. E, Babine, R. E., Fuhrman, S. A., Patick, A. K., Matthews, D. A., Lee, C. A., Reich, S. H., Prins, T. J., Marakovits, J. T., Littlefield, E. S., Zhou, R., Tikhe, J., Ford, C. E., Wallace, M. B., Meador, III, J. W., Ferre, R., Brown, E. L., Binford, S. L, Harr, , J. E. V., DeLisle, D. M. and Worland, S. T. Structure-Based Design, Synthesis, and Biological Evaluation of Irreversible Human Rhinovirus 3C Protease Inhibitors. 1. Michael Acceptor Structure-Activity Studies J. Med. Chem. 1998,41, 2806, the disclosure of which is incorporated by reference herein.

HRV-14 = test: antiviral cytopathic effect assay employing H1-HeLa cells infected with HRV-14; assay type: cell-based, human rhinovirus serotype 14; conditions: for EC50: Rhinovirus B, HRV14, H1-HeLa
[1] = cytotoxicity (CC50) in the antiviral cell culture assay; conditions: human
3CP = molecular target: T2, 3CP (Human rhinovirus 14, UniProt P03303); test: loss of 3CP inhibitory activity after exposure of compound to DTT; assay type: biochemical; conditions: for DTT inhib.: loss of 3CP inhibitory activity after exposure to 5 mM DTT for 2-3 min at 23° C.
T2 construct: The 2A and 3C protease (3CP) process this polyprotein into its functional viral proteins in HRV
Method: With this information in hand, additional esters were prepared and tested. It was anticipated that by filling the active site in the prime direction (S1′-S2′), additional affinity might be obtained. […] To determine whether the activity of the parent compound 1 was due to the inherent reactivity of the unsaturated ester, alternative substitutions were examined in the 1-position corresponding to the S1 recognition pocket. […] (Webber, S. E., Tikhe, J., Worland, S. T., Fuhrman, S. A., Hendrickson, T. F., Matthews, D. A., Love, R. A., Patick, A. K., Meador, J. W., Ferre, R. A., Brown, E. L., DeLisle, D. M., Ford, C. E., Binford, S. L. Design, Synthesis, and Evaluation of Nonpeptidic Inhibitors of Human Rhinovirus 3C Protease. J. Med. Chem. 1996, 39, 5072-5082.) Increased activation of the Michael acceptor toward nucleophilic addition, by alpha cyano substitution, led to a modest but reversible inhibitor, compound 9. Various unsaturated imides, also expected to be more reactive than an unsaturated ester, were poor inhibitors. Exploration of α,β-unsaturated ketones led to some interesting findings. […] When tested in the antiviral assay, ketones in general had greater toxicity (lower CC50) and no measurable antiviral effect. […] (Dragovich, P. S., Webber, S. E, Babine, R. E., Fuhrman, S. A., Patick, A. K., Matthews, D. A., Lee, C. A., Reich, S. H., Prins, T. J., Marakovits, J. T., Littlefield, E. S., Zhou, R., Tikhe, J., Ford, C. E., Wallace, M. B., Meador, III, J. W., Ferre, R., Brown, E. L., Binford, S. L, Harr, J.E. V., DeLisle, D. M. and Worland, S. T. Structure-Based Design, Synthesis, and Biological Evaluation of Irreversible Human Rhinovirus 3C Protease Inhibitors. 1. Michael Acceptor Structure-Activity Studies J. Med. Chem. 1998,41, 2806.) Electron-donating substituents at the 4-position of the phenyl ketone (4-Me2N—, 4-MeO—), were expected to make the ketones less reactive, however, no effect on their inactivation with DTT was observed. Similarly, heterocyclic ketones (2-pyridyl, 2-furyl) maintained their reactivity with DTT. In an attempt to make the inhibitors more compact, an indenone scaffold was designed. […] It became clear that while small, nonpeptidic α,β-unsaturated ketones such as compound 22 afforded potent […] inhibition of 3CP, this increased reactivity was incompatible with the more complex cellular milieu present in the cytopathic effect assay.

[2] = Table 1, Serotype 14, NI = no inhibition

T2 sequence (P03303 1538-1719): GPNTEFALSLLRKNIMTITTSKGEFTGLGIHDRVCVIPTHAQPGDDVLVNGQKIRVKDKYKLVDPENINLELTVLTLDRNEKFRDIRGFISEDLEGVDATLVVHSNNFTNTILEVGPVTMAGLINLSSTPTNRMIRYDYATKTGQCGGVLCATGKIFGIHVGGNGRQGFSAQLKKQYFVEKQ
T1 sequence (P03303 1538-1719): as above

Compound | EC50 (HRV-14) [µM] | CC50 [1] [µM] | further results
3-[3-Carbamoyl-5-(5-pyridin-2-yl-[1,3,4]oxaldiazol-2-ylsulfanylmethyl-phenyl]-acrylic acid ethyl ester [Compound 25] | – | – | Kobs/[I] (HRV-14 3CP; Table 3, Serotype 14): 286 M⁻¹ s⁻¹
CCOC(=O)/C=C/c1cccc(C(N)=O)c1 [Compound 1, 3-(3-Carbamoylphenyl)-acrylic acid ethyl ester] | 15.9 | > 320 | kinact/KI (HRV-14 3CP): 52 M⁻¹ s⁻¹; melting point: 168 to 170 °C
NC(=O)c1cccc(C=O)c1 [Compound 1a, 3-Carbamoyl-benzaldehyde] | – | – | Ki (HRV-14 3CP): 104 µM
COC(=O)/C=C/c1cccc(C(N)=O)c1 [Compound 2, 3-(3-Carbamoyl-phenyl)-acrylic acid methyl ester] | 150 | > 320 | kinact/KI (HRV-14 3CP; [2]): 28 M⁻¹ s⁻¹; fold less active in the antiviral assay relative to ethyl ester compound 1 (HRV-14): 10 fold
NC(=O)c1cccc(C=CC(=O)OCc2ccccc2)c1 [Compound 3, 3-(3-Carbamoyl-phenyl)-adrylic acid benzyl ester] | – | – | Kobs/[I] (HRV-14 3CP; [2]): 25 M⁻¹ s⁻¹; CC50 (H1-HeLa cells): > 100 µM
NC(=O)c1cccc(C=CC(=O)OCCO)c1 [Compound 4, 3-(3-Carbamoyl-phenyl)-acrylic acid 2-hydroxyethyl ester] | 20 | > 320 | kinact/KI (HRV-14 3CP; [2]): 42 M⁻¹ s⁻¹
NC(=O)c1cccc(C=CC(=O)OCCc2ccccc2)c1 [Compound 5, 3-(3-Carbamoyl-phenyl)-acrylic acid phenethyl ester] | 100 | > 320 | kinact/KI (HRV-14 3CP; [2]): 83 M⁻¹ s⁻¹
NC(=O)c1cccc(C=CC(=O)OCc2cccnc2)c1 [Compound 6, 3-(3-Carbamoyl-phenyl)-acrylic acid pyridin-3-yl methyl ester] | – | – | Kobs/[I] (HRV-14 3CP; [2]): 57 M⁻¹ s⁻¹
CCOC(=O)/C(C#N)=C/c1cccc(C(N)=O)c1 [Compound 9, (E)-3-(3-Carbamoyl-phenyl)-2-cyano-acrylic acid ethyl ester] | > 100 | > 100 | –
CCOC(=O)/C=C/c1cc(C(N)=O)ccc1C [Compound 10, 6-Methyl-3-(3-carbamoylphenyl)-acrylic acid ethyl ester] | > 100 | > 100 | % inhibition (printed in the Kobs/[I] column) (HRV-14 3CP; @ 25 (concentration unit not given), Serotype 14): 10% @ 25
CCOC(=O)/C=C/c1cc(O)cc(C(N)=O)c1 [Compound 11, 3-(3-Carbamoyl-5-hydroxy-phenyl)-acrylic acid ethyl ester] | > 100 | > 100 | kinact/KI (HRV-14 3CP; [2]): 47 M⁻¹ s⁻¹; melting point: 200 to 202 °C
CCOC(=O)C=Cc1cc(OCc2ccccc2)cc(C(N)=O)c1 [Compound 12, 3-(3-Benzyloxy-5-carbamoyl-phenyl)-acrylic acid ethyl ester] | – | – | melting point: 193 to 194 °C
CCOC(=O)/C=C/c1cc(CO)cc(C(N)=O)c1 [Compound 13, 3-(3-Carbamoyl-5-hydroxymethyl-phenyl)-acrylic acid ethyl ester] | > 100 | > 100 | kinact/KI (HRV-14 3CP; [2]): 54 M⁻¹ s⁻¹
CCOC(=O)C=Cc1ccc(OCc2ccccc2)c(C(N)=O)c1 [Compound 15, 3-(4-Benzyloxy-3-carbamoyl-phenyl)-acrylic acid ethyl ester] | > 320 | > 320 | kinact/KI (HRV-14 3CP; [2]): 30 M⁻¹ s⁻¹
CC(=O)C=Cc1cccc(C(N)=O)c1 [Compound 16, 3-(3-Oxo-but-1-enyl)-benzamide] | 32 | 40 | DTT inhib. (3CP): yes
NC(=O)c1cccc(C=CC(=O)c2ccccc2)c1 [Compound 17, 3-(3-Oxo-3-phenyl-prop-1-enyl)-benzamide] | 28 | > 28 | DTT inhib. (3CP): yes
CN(C)c1ccc(C(=O)/C=C/c2cccc(C(N)=O)c2)cc1 [Compound 18, 3-[3-(4-Dimethylamino-phenyl)-oxo-propenyl] benzamide] | > 15 | > 15 | DTT inhib. (3CP): yes
COc1ccc(C(=O)/C=C/c2cccc(C(N)=O)c2)cc1 [Compound 19, 3-[3-(4-Methoxy-phenyl)-oxo-propenyl] benzamide] | > 22 | > 22 | DTT inhib. (3CP): yes
NC(=O)c1cccc(C=CC(=O)c2ccccn2)c1 [Compound 20, 3-(3-Oxo-3-pyridin-2-yl-propenyl)-benzamide] | > 50 | > 50 | DTT inhib. (3CP): yes
NC(=O)c1cccc(C=CC(=O)c2ccco2)c1 [Compound 21, 3-(3-Furan-2-yl-3-oxo-propenyl)-benzamide] | > 71 | > 71 | DTT inhib. (3CP): yes
NC(=O)c1ccc2c(c1)C=CC2=O [Compound 22, 1-Oxo-1H-indene-5-carboxylic acid amide] | > 20 | > 20 | melting point: 275 °C (dec.); DTT inhib. (3CP): yes; inactivation by DTT (in words) (3CP; upon incubation with DTT): inactivated by DTT; antiviral activity (in words) (HRV-14): no antiviral activity
CCOC(=O)C=Cc1cc(CN(CCC(=O)OCC)Cc2ccccc2)cc(C(N)=O)c1 [Compound 23, 3-(3-{[Benzyl-(2-ethoxycarbonyl-ethyl)-amino]-methyl}-5-carbamoyl-phenyl)-acrylic acid ethylester] | 10 | > 100 | kinact/KI (HRV-14 3CP; Table 3, Serotype 14): 568 M⁻¹ s⁻¹
CCOC(=O)C=Cc1cc(CN2CCN(c3ccccn3)CC2)cc(C(N)=O)c1 [Compound 26, 3-[3-Carbamoyl-5-(4-pyridin-2-yl-piperizin-1-methyl)-phenyl]-acrylic acid ethyl ester] | – | – | Kobs/[I] (HRV-14 3CP; Table 3, Serotype 14): 269 M⁻¹ s⁻¹
CCOC(=O)C=Cc1cc(CN2CCN(C(=O)OCC)CC2)cc(C(N)=O)c1 [Compound 28, 4-[3-Carbamoyl-5-(2-ethoxycarbonyl-vinyl)-benzyl]-piperazine-1-carboxylic acid ethyl ester] | 1.8 | > 100 | kinact/KI (HRV-14 3CP): 130 M⁻¹ s⁻¹
CCOC(=O)C=Cc1cc(CN2CCN(c3ncccn3)CC2)cc(C(N)=O)c1 [Compound 29, 3-{3-Carbamoyl-5-(4-pyrimidin-2-yl-piperazin-1-ylmethyl)-phenyl}-acrylic acid ethyl ester] | – | > 100 | kinact/KI (HRV-14 3CP): 163 M⁻¹ s⁻¹; EC50 (HRV-14; Table 3, Serotype 14, read-out: EC50): 1 µM
CCOC(=O)C=Cc1cc(CN2CCN(c3ccccc3C#N)CC2)cc(C(N)=O)c1 [Compound 30, 3-{3-Carbamoyl-5-[4-(2-cyano-phenyl)-piperazin-1-ylmethyl]-phenyl}-acrylicacid ethyl ester] | 0.6 | 79 | kinact/KI (HRV-14 3CP; Table 3, Serotype 14): 139 M⁻¹ s⁻¹; antiviral activity (in words) (HRV-14): submicromolar antiviral activity; EC50 (HRV-14; read-out: antiviral EC50): 0.6 µM
